Legend:
Rattus norvegicus [1] = assay: Total electrolytic excretion of sodium in urine of rats after peroral administration of 28.2 uM/Kg of drug; format: ADME, organism-based; details: in vivo, po
Rattus norvegicus [2] = assay: Total electrolytic excretion of sodium in urine of rats after peroral administration of 84.5 uM/Kg of drug; format: ADME, organism-based; details: in vivo, po
Rattus norvegicus [3] = assay: Ratio of Total electrolytic excretion of sodium and potassium in urine of rats after peroral administration of 282 uM/Kg of drug; format: ADME, organism-based; details: in vivo, po
Rattus norvegicus [4] = assay: Total electrolytic excretion of potassium in urine of rats after peroral administration of 28.2 uM/Kg of drug; format: ADME, organism-based; details: in vivo, po
Rattus norvegicus [5] = assay: Total electrolytic excretion of potassium in urine of rats after peroral administration of 282 uM/Kg of drug; format: ADME, organism-based; details: in vivo, po
Rattus norvegicus [6] = assay: Ratio of Total electrolytic excretion of sodium and potassium in urine of rats after peroral administration of 28.2 uM/Kg of drug; format: ADME, organism-based; details: in vivo, po
Rattus norvegicus [7] = assay: Total electrolytic excretion of potassium in urine of rats after peroral administration of 84.5 uM/Kg of drug; format: ADME, organism-based; details: in vivo, po
Rattus norvegicus [8] = assay: Total electrolytic excretion of sodium in urine of rats after peroral administration of 282 uM/Kg of drug; format: ADME, organism-based; details: in vivo, po
Rattus norvegicus [9] = assay: Total electrolytic excretion of chlorine in urine of rats after peroral administration of 282 uM/Kg of drug; format: ADME, organism-based; details: in vivo, po
Rattus norvegicus [10] = assay: Total electrolytic excretion of chlorine in urine of rats after peroral administration of 28.2 uM/Kg of drug; format: ADME, organism-based; details: in vivo, po
Rattus norvegicus [11] = assay: Tested for the diuretic activity by measuring the urinary volume after peroral administering 28.2 uM/Kg of drug in rats; format: ADME, organism-based, Urine; details: in vivo, po
Rattus norvegicus [12] = assay: Total electrolytic excretion of chlorine in urine of rats after peroral administration of 84.5 uM/Kg of drug; format: ADME, organism-based; details: in vivo, po
Rattus norvegicus [13] = assay: Tested for the diuretic activity by measuring the urinary volume after peroral administering 282 uM/Kg of drug in rats; format: ADME, organism-based, Urine; details: in vivo, po
Rattus norvegicus [14] = assay: Ratio of Total electrolytic excretion of sodium and potassium in urine of rats after peroral administration of 84.5 uM/Kg of drug; format: ADME, organism-based; details: in vivo, po
Rattus norvegicus [15] = assay: Tested for the diuretic activity by measuring the urinary volume after peroral administering 84.5 uM/Kg of drug in rats; format: ADME, organism-based, Urine; details: in vivo, po
Canis familiaris [16] = assay: Total electrolytic excretion of sodium in urine of dogs after intravenous administration of 8.47 uM/Kg of drug; format: ADME, organism-based, Canis lupus familiaris; details: dog, in vivo
Rattus norvegicus [17] = assay: Total electrolytic excretion of potassium in urine of rats after peroral administration of 28.22 uM/Kg of drug; format: ADME, organism-based; details: in vivo, po
Rattus norvegicus [18] = assay: Ratio of Total electrolytic excretion of sodium and potassium in urine of rats after intravenous administration of 8.47 uM/Kg of drug; format: ADME, organism-based; details: in vivo
Rattus norvegicus [19] = assay: Ratio of Total electrolytic excretion of sodium and potassium in urine of rats after peroral administration of 84.7 uM/Kg of drug; format: ADME, organism-based; details: in vivo, po
Canis familiaris [20] = assay: Total electrolytic excretion of potassium in urine of dogs after intravenous administration of 8.47 uM/Kg of drug; format: ADME, organism-based, Canis lupus familiaris; details: dog, in vivo
Rattus norvegicus [21] = assay: Total electrolytic excretion of chlorine in urine of rats after peroral administration of 84.7 uM/Kg of drug; format: ADME, organism-based; details: in vivo, po
Rattus norvegicus [22] = assay: Total electrolytic excretion of chlorine in urine of rats after peroral administration of 28.22 uM/Kg of drug; format: ADME, organism-based; details: in vivo, po
Canis familiaris [23] = assay: Total electrolytic excretion of chlorine in urine of dogs after intravenous administration of 8.47 uM/Kg of drug; format: ADME, organism-based, Canis lupus familiaris; details: dog, in vivo
Rattus norvegicus [24] = assay: Tested for the diuretic activity by measuring the urinary volume after peroral administering 84.7 uM/Kg of drug in rats; format: ADME, organism-based, Urine; details: in vivo, po
Canis familiaris [25] = assay: Tested for the diuretic activity by measuring the urinary volume after intravenous administering 8.47 uM/Kg of drug in dogs; format: ADME, organism-based, Canis lupus familiaris, Urine; details: dog, in vivo
Rattus norvegicus [26] = assay: Total electrolytic excretion of potassium in urine of rats after peroral administration of 84.7 uM/Kg of drug; format: ADME, organism-based; details: in vivo, po
Rattus norvegicus [27] = assay: Total electrolytic excretion of sodium in urine of rats after peroral administration of 84.7 uM/Kg of drug; format: ADME, organism-based; details: in vivo, po

**Q.** Which “Excretion Na+” value (Rattus norvegicus [1]) does the source give for `C1CCC(/N=C(/NC2CCCCC2)N2CCCCC2)CC1` here?
**A.** 1.13 m equiv

**Q.** And the “Excretion Na+” value (Rattus norvegicus [2])?
**A.** 1.33 m equiv

**Q.** And the Ratio (Rattus norvegicus [3])?
**A.** 3.7

**Q.** And the “Excretion K+” value (Rattus norvegicus [4])?
**A.** 0.29 m equiv

**Q.** What about the “Excretion K+” value (Rattus norvegicus [5]) of the same compound?
**A.** 0.21 m equiv

**Q.** And the Ratio (Rattus norvegicus [6])?
**A.** 4

**Q.** And the “Excretion K+” value (Rattus norvegicus [7])?
**A.** 0.35 m equiv

**Q.** What about the “Excretion Na+” value (Rattus norvegicus [8]) of the same compound?
**A.** 0.76 m equiv

**Q.** And the “Excretion Cl-” value (Rattus norvegicus [9])?
**A.** 0.77 m equiv

**Q.** What about the “Excretion Cl-” value (Rattus norvegicus [10]) of the same compound?
**A.** 1.18 m equiv

**Q.** What about the V (Rattus norvegicus [11]) of the same compound?
**A.** 6.5 mL

**Q.** And the “Excretion Cl-” value (Rattus norvegicus [12])?
**A.** 1.46 m equiv

**Q.** What about the V (Rattus norvegicus [13]) of the same compound?
**A.** 3.7 mL

**Q.** What about the Ratio (Rattus norvegicus [14]) of the same compound?
**A.** 3.8

**Q.** And the V (Rattus norvegicus [15])?
**A.** 7.4 mL

**Q.** What does the source list for `Fc1ccc(/N=C(/Nc2ccc(F)cc2)N2CCOCC2)cc1`?
**A.** Excretion Na+ (Rattus norvegicus [1]): 1.29 m equiv; Excretion Na+ (Canis familiaris [16]): 6 m equiv; Ratio (Rattus norvegicus [3]): 8.5; Excretion K+ (Rattus norvegicus [17]): 0.39 m equiv; Ratio (Rattus norvegicus [18]): 5.7; Ratio (Rattus norvegicus [19]): 4; Excretion K+ (Rattus norvegicus [5]): 0.24 m equiv; Ratio (Rattus norvegicus [6]): 3.3; Excretion K+ (Canis familiaris [20]): 1.1 m equiv; Excretion Cl- (Rattus norvegicus [21]): 1.82 m equiv; Excretion Na+ (Rattus norvegicus [8]): 2.05 m equiv; Excretion Cl- (Rattus norvegicus [22]): 1.32 m equiv; Excretion Cl- (Canis familiaris [23]): 5.7 m equiv; Excretion Cl- (Rattus norvegicus [9]): 1.7 m equiv; V (Rattus norvegicus [24]): 13.6 mL; V (Rattus norvegicus [11]): 9.2 mL; V (Canis familiaris [25]): 58 mL; V (Rattus norvegicus [13]): 16.2 mL; Excretion K+ (Rattus norvegicus [26]): 0.48 m equiv; Excretion Na+ (Rattus norvegicus [27]): 1.9 m equiv

From ChEMBL document CHEMBL1127385, “Synthesis and diuretic activity of alkyl- and arylguanidine analogs of N,N'-dicyclohexyl-4-morpholinecarboxamidine in rats and dogs” (J Med Chem, 1994)
